Like-named read-outs stand apart in the source and are kept apart here.
How the values were obtained:
[1] = 72-h MTT cytotoxicity assay; assay type: cell-based; conditions: human, MRC5 cells
Procedure: (§1) MTT cytotoxicity assay. […] Human tumour cell lines were obtained from ECACC (European Collection of Cell Cultures). Standard 72-h MTT (thiazolyl blue; 3-[4,5-dimethylthiazol-2-yl]-2,5-diphenyltetrazolium bromide, 2 mg/ml in phosphate buffered saline) assays were performed. In short: cells were seeded into 96-well plates according to doubling time and incubated overnight at 37° C. Test compounds were made up in DMSO and a ⅓ dilution series prepared in 100 μL cell media, added to cells (in triplicates) and incubated for 72 hr at 37° C. MTT was made up as a stock of 5 mg/mL in cell media and filter-sterilised. Media was removed from cells followed by a wash with 200 μL PBS. MTT solution was then added at 20 μL per well and incubated in the dark at 37° C. for 4 h. MTT solution was removed and cells again washed with 200 μL PBS. MTT dye was solubilised with 200 μL per well of DMSO with agitation. Absorbance was read at 550 nm on an Anthos Labtec Systems plate reader.

MCF-7 = test: 72-h MTT cytotoxicity assay; assay type: cell-based, human; conditions: for GI50: Homo sapiens, MCF7 cells, 72-h MTT
Procedure: as §1

HCT-116 = test: 72-h MTT cytotoxicity assay; assay type: cell-based, human; conditions: for GI50: Homo sapiens, HCT-116, HCT116 cells, 72-h MTT
Procedure: as §1

CDK7 = CDK7 (Homo sapiens, UniProt P50613); test: Kinase assay (radioactive phosphate incorporation); assay type: biochemical; conditions: CDK7-cyclinH; read-out: Kinase inhibition IC50 CDK7-cyclinH
Chain of CDK7 (P50613 whole entry, species assumed): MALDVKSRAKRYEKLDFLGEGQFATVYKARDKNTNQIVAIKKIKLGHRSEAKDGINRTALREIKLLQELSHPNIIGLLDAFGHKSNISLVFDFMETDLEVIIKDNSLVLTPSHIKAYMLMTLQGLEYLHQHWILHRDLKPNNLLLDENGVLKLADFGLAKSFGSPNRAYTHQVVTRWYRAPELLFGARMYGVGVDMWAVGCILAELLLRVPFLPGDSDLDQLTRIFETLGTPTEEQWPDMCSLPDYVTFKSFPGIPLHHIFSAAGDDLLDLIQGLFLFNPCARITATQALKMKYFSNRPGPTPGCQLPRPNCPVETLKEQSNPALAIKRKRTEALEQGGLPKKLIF
Chain of CDK7 (P51946 whole entry partner, species assumed): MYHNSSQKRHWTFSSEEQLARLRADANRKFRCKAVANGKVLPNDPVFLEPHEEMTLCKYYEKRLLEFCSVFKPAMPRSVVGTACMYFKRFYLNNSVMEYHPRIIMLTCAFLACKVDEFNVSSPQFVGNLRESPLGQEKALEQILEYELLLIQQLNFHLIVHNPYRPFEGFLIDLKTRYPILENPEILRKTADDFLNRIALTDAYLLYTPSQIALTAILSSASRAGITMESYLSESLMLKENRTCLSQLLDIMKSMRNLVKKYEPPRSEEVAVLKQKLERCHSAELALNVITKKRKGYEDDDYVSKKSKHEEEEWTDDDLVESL
Procedure: (§2) Kinase assays. The compounds from the examples above were investigated for their ability to inhibit the enzymatic activity of various protein kinases using the method as disclosed in Wang, S. et al. J Med Chem 2004, 47, 1662. This was achieved by measurement of incorporation of radioactive phosphate from ATP into appropriate polypeptide substrates. Recombinant protein kinases and kinase complexes were produced or obtained commercially. Assays were performed using 96-well plates and appropriate assay buffers (typically 25 mM β-glycerophosphate, 20 mM MOPS, 5 mM EGTA, 1 mM DTT, 1 mM […], pH 7.4), into which were added 2-4 μg of active enzyme with appropriate substrates. The reactions were initiated by addition of Mg/ATP mix (15 mM MgCl2+100 μM ATP with 30-50 kBq per well of [γ-^32P]-ATP) and mixtures incubated as required at 30° C.; Reactions were stopped on ice, followed by filtration through p81 filterplates or GF/C filterplates (Whatman Polyfiltronics, Kent, UK). After washing 3 times with 75 mM aq orthophosphoric acid, plates were dried, scintillant added and incorporated radioactivity measured in a scintillation counter (TopCount, Packard Instruments, Pangbourne, Berks, UK). Compounds for kinase assay were made up as 10 mM stocks in DMSO and diluted into 10% DMSO in assay buffer.

Human tumour cell lines = test: 72-h MTT cytotoxicity assay, human tumour cell lines (panel / mean); assay type: cell-based; conditions: read-out: 72-h MTT IC50 (μM), mean over the nine human cell lines of Table A2
Procedure: (§3) MTT cytotoxicity assay. The compounds from the examples above were subjected to a standard cellular proliferation assay using the method described previously (Haselsberger, K. et al. Anti Cancer Drugs 1996, 7, (3), 331-8. Loveland, B. E. et al. Biochemistry International 1992, 27, (3), 501-10). Human tumour cell lines were obtained from ECACC (European Collection of Cell Cultures). Standard 72-h MTT (thiazolyl blue; 3-[4,5-dimethylthiazol-2-yl]-2,5-diphenyltetrazolium bromide, 2 mg/ml in phosphate buffered saline) assays were performed. In short: cells were seeded into 96-well plates according to doubling time and incubated overnight at 37° C. Test compounds were made up in DMSO and a ⅓ dilution series prepared in 100 μL cell media, added to cells (in triplicates) and incubated for 72 hr at 37° C. MTT was made up as a stock of 5 mg/mL in cell media and filter-sterilised. Media was removed from cells followed by a wash with 200 μL PBS. MTT solution was then added at 20 μL per well and incubated in the dark at 37° C. for 4 h. MTT solution was removed and cells again washed with 200 μL PBS. MTT dye was solubilised with 200 μL per well of DMSO with agitation. Absorbance was read at 550 nm on an Anthos Labtec Systems plate reader.

CDK9 = CDK9 (Homo sapiens, UniProt P50750); test: Kinase assay (radioactive phosphate incorporation); assay type: biochemical
Chain of CDK9 (P50750 whole entry, species assumed): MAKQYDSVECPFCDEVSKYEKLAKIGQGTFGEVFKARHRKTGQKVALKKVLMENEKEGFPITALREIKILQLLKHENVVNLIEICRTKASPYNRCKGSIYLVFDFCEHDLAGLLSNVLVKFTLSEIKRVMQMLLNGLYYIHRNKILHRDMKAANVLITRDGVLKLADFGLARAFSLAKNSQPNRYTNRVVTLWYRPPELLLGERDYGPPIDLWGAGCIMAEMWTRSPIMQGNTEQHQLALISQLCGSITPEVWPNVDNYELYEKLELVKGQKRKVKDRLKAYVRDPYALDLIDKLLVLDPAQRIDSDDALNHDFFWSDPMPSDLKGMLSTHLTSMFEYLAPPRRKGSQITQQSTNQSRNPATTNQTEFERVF
Chain of CDK9 (O60563 whole entry partner, species assumed): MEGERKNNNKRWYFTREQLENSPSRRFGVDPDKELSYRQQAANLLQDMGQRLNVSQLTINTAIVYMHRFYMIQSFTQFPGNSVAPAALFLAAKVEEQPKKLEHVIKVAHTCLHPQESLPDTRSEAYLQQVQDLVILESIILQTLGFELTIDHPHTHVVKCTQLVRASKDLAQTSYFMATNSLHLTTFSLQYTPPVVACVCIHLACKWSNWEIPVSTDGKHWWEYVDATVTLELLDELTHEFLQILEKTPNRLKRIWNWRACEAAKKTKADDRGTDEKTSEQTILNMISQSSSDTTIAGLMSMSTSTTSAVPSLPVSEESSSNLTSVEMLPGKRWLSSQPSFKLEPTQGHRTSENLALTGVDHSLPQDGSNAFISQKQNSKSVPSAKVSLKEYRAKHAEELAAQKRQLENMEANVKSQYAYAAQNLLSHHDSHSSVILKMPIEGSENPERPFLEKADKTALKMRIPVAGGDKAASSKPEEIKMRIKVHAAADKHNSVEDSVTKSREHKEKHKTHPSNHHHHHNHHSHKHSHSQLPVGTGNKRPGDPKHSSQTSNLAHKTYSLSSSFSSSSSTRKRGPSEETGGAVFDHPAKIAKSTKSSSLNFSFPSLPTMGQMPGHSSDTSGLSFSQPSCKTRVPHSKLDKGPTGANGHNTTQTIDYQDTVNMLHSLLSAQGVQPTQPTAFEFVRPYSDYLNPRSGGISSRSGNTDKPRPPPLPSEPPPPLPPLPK
Procedure: as §2, with “The compounds from the examples above were investigated for their ability to inhibit the enzymatic activity of various protein kinases using the method as disclosed in Wang, S. et al. J Med Chem 2004, 47, 1662.” left out

CDK2 = CDK2 (Homo sapiens, UniProt P24941); test: Kinase assay (radioactive phosphate incorporation); assay type: biochemical; conditions: CDK2-cyclinE; read-out: Kinase inhibition IC50 CDK2-cyclinE
Procedure: as §2, with “The compounds from the examples above were investigated for their ability to inhibit the enzymatic activity of various protein kinases using the method as disclosed in Wang, S. et al. J Med Chem 2004, 47, 1662.” left out

A549 = test: 72-h MTT cytotoxicity assay; assay type: cell-based; conditions: read-out: 72-h MTT IC50 (μM), human cell line, lung
Procedure: as §3

PANC W1 = test: 72-h MTT cytotoxicity assay; assay type: cell-based; conditions: read-out: 72-h MTT IC50 (μM), human cell line, pancreatic carcinoma
Procedure: as §3

HeLa = test: 72-h MTT cytotoxicity assay; assay type: cell-based; conditions: read-out: 72-h MTT IC50 (μM), human cell line, cervix
Procedure: as §3

NCI-H460 = test: 72-h MTT cytotoxicity assay; assay type: cell-based; conditions: read-out: 72-h MTT IC50 (μM), human cell line, lung
Procedure: as §3

MDA-MB-231 = test: 72-h MTT cytotoxicity assay; assay type: cell-based; conditions: read-out: 72-h MTT IC50 (μM), human cell line, breast
Procedure: as §3

A2780 = test: 72-h MTT cytotoxicity assay; assay type: cell-based; conditions: read-out: 72-h MTT IC50 (μM), human cell line, ovarian carcinoma
Procedure: as §3

Mia-Paca-2 = test: 72-h MTT cytotoxicity assay; assay type: cell-based; conditions: read-out: 72-h MTT IC50 (μM), human cell line, pancreatic carcinoma
Procedure: as §3

[2] = CDK9-cyclinT1, read-out: Kinase inhibition IC50 CDK9-cyclinT1

## CNc1nc(C)c(-c2nc(Nc3ccc(O)cc3)ncc2C#N)s1 [Example 1.2, 2-(4-Hydroxy-phenylamino)-4-(4-methyl-2-methylamino-thiazol-5-yl)-pyrimidine-5-carbonitrile]
[1]
  GI50 at 72 h: 1050 nM
MCF-7
  GI50: 230 nM
HCT-116
  GI50: 400 nM

## CNc1nc(C)c(-c2nc(Nc3ccc(C)c(S(=O)(=O)N4CCOCC4)c3)ncc2C#N)s1 [Example 1.1, 4-(4-Methyl-2-methylamino-thiazol-5-yl)-2-[4-methyl-3-(morpholine-4-sulfonyl)-phenylamino]-pyrimidine-5-carbonitrile]
CDK7
  IC50: > 1000 nM
Human tumour cell lines
  IC50: 0.433 µM
CDK9; [2]
  IC50: 41 nM
CDK2
  IC50: 232 nM
[1]
  GI50 at 72 h: 3140 nM
MCF-7
  GI50: 60 nM
MCF-7; MCF7, read-out: 72-h MTT IC50 (μM), human cell line, breast, MCF-7, 72 h
  IC50: 0.06 µM
HCT-116
  GI50: 60 nM
HCT-116; read-out: 72-h MTT IC50 (μM), human cell line HCT-116 (origin not given, stands under cervix), 72 h
  IC50: 0.06 µM
A549
  IC50: 0.534 µM
PANC W1
  IC50: 0.366 µM
HeLa
  IC50: 0.661 µM
NCI-H460
  IC50: 0.681 µM
MDA-MB-231
  IC50: 0.923 µM
A2780
  IC50: 0.147 µM
Mia-Paca-2
  IC50: 0.468 µM

## CNc1nc(C)c(-c2nc(Nc3cccc(C(=O)N4CCN(C(C)=O)CC4)c3)ncc2C#N)s1 [Example 1.5, 2-(3-(4-Acetylpiperazine-1-carbonyl)phenylamino)-4-(4-methyl-2-(methylamino)-thiazol-5-yl)pyrimidine-5-carbonitrile]
CDK9; [2]
  IC50: 33 nM
CDK2
  IC50: 52 nM

## COc1cccc(-c2nc(NO)nc(Nc3cccc([N+](=O)[O-])c3)n2)c1 [Example 2.8, 4-(hydroxyamino)-6-(3-methoxyphenyl)-N-(3-nitrophenyl)-1,3,5-triazin-2-amine]
[1]
  GI50 at 72 h: 4240 nM
MCF-7
  GI50: 6420 nM
HCT-116
  GI50: 3480 nM

## COc1cccc(-c2nc(Cl)nc(Nc3ccc(C)c(S(=O)(=O)N4CCOCC4)c3)n2)c1 [Example 2.4, 4-chloro-6-(3-methoxyphenyl)-N-(4-methyl-3-(morpholinosulfonyl)phenyl)-1,3,5-triazin-2-amine]
[1]
  GI50 at 72 h: 580 nM
MCF-7
  GI50: 1580 nM
HCT-116
  GI50: 530 nM

## COc1cccc(-c2nc(Cl)nc(Nc3cccc([N+](=O)[O-])c3)n2)c1 [Example 2.2, 4-chloro-6-(3-methoxyphenyl)-N-(3-nitrophenyl)-1,3,5-triazin-2-amine]
other
  melting point: 196.9 to 197.2 °C

## CNc1nc(C)c(-c2nc(Nc3cccc(C(=O)N4CCOCC4)c3)ncc2C#N)s1 [Example 1.4]
CDK7
  IC50: 3740 nM
CDK9; [2]
  IC50: 85 nM
CDK2
  IC50: 147 nM
[1]
  GI50 at 72 h: 4430 nM
MCF-7
  GI50: 820 nM
HCT-116
  GI50: 590 nM

## CNc1nc(C)c(-c2nc(Nc3cccc(O)c3)ncc2C#N)s1 [Example 1.3, 2-(3-Hydroxy-phenylamino)-4-(4-methyl-2-methylamino-thiazol-5-yl)-pyrimidine-5-carbonitrile]
CDK9
  IC50: 19 nM

## COc1cccc(-c2nc(Cl)nc(Nc3cccc(Br)c3)n2)c1 [Example 2.3, N-(3-bromophenyl)-4-chloro-6-(3-methoxyphenyl)-1,3,5-triazin-2-amine]
other
  melting point: 141.9 to 142.1 °C

## CNc1nc(C)c(-c2nc(Nc3cccc(C(=O)O)c3)ncc2C#N)s1 [Example 1.6, 3-(5-cyano-4-(4-methyl-2-(methylamino)thiazol-5-yl)pyrimidin-2-ylamino)benzoic acid]
[1]
  GI50 at 72 h: > 100000 nM
MCF-7
  GI50: 1870 nM
HCT-116
  GI50: 550 nM

## COc1cccc(-c2nc(Cl)nc(Nc3ccc(O)cc3)n2)c1 [Example 2.1, 4-(4-chloro-6-(3-methoxyphenyl)-1,3,5-triazin-2-ylamino)phenol]
other
  melting point: 93.5 to 94 °C

## CNc1nc(C)c(-c2nc(Nc3ccc(S(N)(=O)=O)cc3)ncc2C#N)s1 [Example 1.8, 4-(5-cyano-4-(4-methyl-2-(methylamino)thiazol-5-yl)pyrimidin-2-ylamino)benzenesulfonamide]
[1]
  GI50 at 72 h: 26000 nM
MCF-7
  GI50: 1640 nM
HCT-116
  GI50: 340 nM

## COc1cccc(-c2nc(N)nc(Nc3cccc([N+](=O)[O-])c3)n2)c1 [Example 2.6, 6-(3-methoxyphenyl)-N2-(3-nitrophenyl)-1,3,5-triazine-2,4-diamine]
[1]
  GI50 at 72 h: 37600 nM
MCF-7
  GI50: 7070 nM
HCT-116
  GI50: 7090 nM

Reference: patent US20110092490A1, “PYRIMIDINES, TRIAZINES AND THEIR USE AS PHARMACEUTICAL AGENTS” (THE UNIVERSITY OF NOTTINGHAM, priority 2008, published 2011)
